Patent US10350239B2, “Pharmaceutical composition for treating cancer comprising trypsinogen and/or chymotrypsinogen and an active agent selected from a selenium compound, a vanilloid compound and a cytoplasmic glycolysis reduction agent” (Propanc Pty Ltd, priority 2009, dated 2019)

Experiments:
[1] = background statement; cited from earlier work
[2] = Body weight in the AngioChamber study; format: in vivo; conditions: female FvB mice; Day 0 to Day 5; 60 mg/kg p.o. daily
Experimental: Body weight measurements were recorded for all animals on the first treatment day (Day 0) and then daily until the termination day of the study (Day 5).
Each animal's body weight was measured immediately prior to dosing. The volume of dosing solution administered to each animal was calculated and adjusted based on individual body weight.
All statistical calculations were performed using SigmaStat 3.0 (SPSS Australasia, North Sydney, NSW, Australia). A paired t-test was used to determine the significance in body weight change within a treatment group between Day 0 and the termination day of the study. […] Significant induction of the fibrous capsule formation by bFGF is considered to be essential to accept the study results. A One-Way Analysis of Variance (ANOVA) was performed on the capsule weight data at the end of the study. Where significant differences were found, All Pairwise Multiple Comparison and Multiple Comparison versus Control Group Procedures (Holm-Sidak Method) were performed. A p value of less than 0.05 was considered significant.

[3] = system: bFGF-induced angiogenesis; assay: AngioChamber assay (fibrous capsule wet weight); format: in vivo; conditions: female FvB mice, once daily Day 0-4, capsule excised Day 5, p<0.05
Description: The AngioChamber™ assay utilises the normal physiological process of wound healing, to promote fibrous capsule formation around an implanted chamber (Wood, J. M., Bold, G., Buchdunger, E., Cozens, R., et al. PTK787/ZK 222584, a Novel and Potent Inhibitor of Vascular Endothelial Growth Factor Tyrosine Kinases, Impairs Vascular Endothelial Growth Factor-Induced Responses and Tumour Growth After Oral Administration. Cancer Research, 60 (8):2178-2189 (2000)). The inclusion of Basic Fibroblast Growth Factor (bFGF) in the chamber supports the fibrouse capsule formation while inducing blood vessel development. […] The fibrous capsule around the chamber was removed and the wet weight recorded. […] The vascularised fibrous capsule that had formed around each chamber was carefully removed and the wet weight recorded immediately. Angiogenesis inhibition by Test Articles (%) was calculated using the following formula: % Inhibition=[(A−B)/(A−C)×100] where A is the mean capsule weight from mice with implanted AngioChambers™ containing growth factor and treated with Vehicle Control (Group 2), B is the mean capsule weight from mice with implanted AngioChambers™ containing growth factor and treated with Test Article (Groups 3-5), and C is the mean capsule weight from mice with implanted AngioChambers™ without growth factor and treated with Vehicle Control (Group 1). […]

A549 = assay: CellTiter-Blue cell growth assay, A549; format: cell-based, human; conditions: A-549; 72 hours; Tables 11-13
Experimental: (§1) All the cell lines used in these studies were of human origin and were sourced from the American Type Culture Collection (ATCC) (Rockville, Md., USA).
(§2) The cells were cultured at 37° C. in a humidified cell culture incubator supplied with 95% air/5% CO2.
(§3) Test Article concentrations were tested in triplicates for each cell line. The CellTiter-Blue® Assay was carried out on all plates 72 hours post addition of Test Articles.
(§4) Following incubation of cells in Test Article-containing media, 10 μL of CellTiter-Blue® was added to each well and incubated with cells for up to 4 hours. Fluorescence was measured using a Spectramax Gemini XPS Fluorometer. All data were recorded and entered into Microsoft® Excel spreadsheets for interpretation.
(§5) Data collected from CellTiter-Blue® assays were plotted as dose response curves for IC50 determination, and as isobolograms to assess the type of interaction between Test Article combinations. For IC50 determinations, growth inhibition was calculated and plotted against compound concentration. In these plots, the X-axis (compound concentration) was represented in a logarithmic scale. IC50 concentration was calculated as the half maximal (50%) inhibitory concentration (IC) for each compound using GraphPad Prism version 5.0 for Mac OSX (GraphPad Software, San Diego Calif., USA).

HCT-15 = assay: CellTiter-Blue cell growth assay, HCT-15; format: cell-based, human; conditions: 72 hours, Tables 11-13
Experimental: as §1, §2, §3, §4, §5

MIAPaCa-2 = assay: CellTiter-Blue cell growth assay, MIAPaCa-2; format: cell-based, human; conditions: 72 hours, Tables 11-13
Experimental: as §1, §2, §3, §4, §5

A-549 cells = assay: Isobolographic combination assay, A-549 cells; format: cell-based, human
Experimental: (§6) The dose-response relations of agents can be used to construct a model giving the expected effect of a combination. The combination of drugs A and B shall be termed (da,db) where da and db are doses of A and B. Effect is treated as a mathematical function, E(da,db). E is sometimes expressed as a fractional effect, then the survival fraction is S: S=1-E. Finally, Da and Db are doses of drugs A and B given separately, which produce an isoeffective response with the combination. Isoboles (iso-effect curves) can be constructed based on the assumption that there is no interaction between the drugs used in combination. The combination (da, db) is represented by a point on a graph that has axes representing doses of the individual drugs. […]
(§7) This ratio is also called g value and it used to determine the type of interaction. In this case the calculated isobole is concave. […]
(§8) The initial concentrations for each compound in each cell line were decided based on the calculated IC50 in a way that the IC50 for each drug fell within the concentration in the dilution series. […]
as §4, with “interpretation. […]” for “interpretation.”

MIAPaCa-2 cells = assay: Isobolographic combination assay, MIAPaCa-2 cells; format: cell-based, human
Experimental: as §6, §7, §8
as §4, with “interpretation. […]” for “interpretation.”

[4] = system: A-549, HCT-15 and MIAPaCa-2 cells; assay: CellTiter-Blue cell growth assay, three selected cell lines together; format: cell-based, human
Experimental: as §1, §2, §3, §4, §5

HCT-15 cells = assay: Isobolographic combination assay, HCT-15 cells; format: cell-based, human
Experimental: as §6, §7, §8
as §4, with “interpretation. […]” for “interpretation.”

C[Se]CC[C@H](N)C(=O)O [selenomethionine]
toxic level (organic forms of selenium) [1]: about 3500 micrograms daily

CNC(=O)c1cc(Oc2ccc(NC(=O)Nc3ccc(Cl)c(C(F)(F)F)c3)cc2)ccn1 [Sorafenib]
body weight loss at termination of the study [2]: 5.6%
angiogenesis (capsule wet weight) compared to the Induction Control (Vehicle Control with bFGF) ([3]; JBp1 and JBp1-DCM i.p., Sorafenib 60 mg/kg p.o.): significant reduction in angiogenesis
angiogenesis (capsule wet weight) compared with JBp1 monotherapy [3]: significantly reduced angiogenesis

Trypsinogen
IC50 values (A549): 230 µg/mL
Maximum Inhibition (%) (A549): 75.7%
IC50 values (HCT-15): 410 µg/mL
Maximum Inhibition (%) (HCT-15): 77.2%
IC50 values (MIAPaCa-2): 280 µg/mL
Maximum Inhibition (%) (MIAPaCa-2): 82.3%
type of interaction in combination with chymotrypsinogen (isobolographic, in words) (A-549 cells): wide-range of synergistic interaction
type of interaction in combination with α-amylase (isobolographic, in words) (A-549 cells): narrow-range type
type of interaction in combination with chymotrypsinogen (isobolographic, in words) (MIAPaCa-2 cells): wide-range of synergistic interaction
type of interaction in combination with α-amylase (isobolographic, in words) (MIAPaCa-2 cells): wide-range type
IC50 values, range over all three cell lines [4]: 230 to 410 µg/mL
type of interaction in combination with chymotrypsinogen (isobolographic, in words) (HCT-15 cells): non-antagonistic interaction
type of interaction in combination with α-amylase (isobolographic, in words) (HCT-15 cells): non-synergistic interaction
